Laboratory results: publication PMC11130353, “Using host-mimicking conditions and a murine cutaneous abscess model to identify synergistic antibiotic combinations effective against Pseudomonas aeruginosa” (Frontiers in Cellular and Infection Microbiology, 2024)
In brackets after ≈: the same amount, converted by molar mass. Like-named read-outs stand apart in the source and are kept apart here. Peptide text beside a SMILES is read from it.

Assays:
[1] = Method: Mice used in this study were female Swiss Webster aged approximately 6-7 weeks and sourced from the University of Otago Biomedical Research Facility. […] Briefly, the fur on the back of each mouse was removed by shaving and chemical depilation. Antibiotics were tested for skin toxicity by injecting 50 μL of antibiotic suspension subcutaneously into naïve mice, and subsequent inspection of the skin for inflammation on the next day. P. aeruginosa LESB58 was grown to mid-log phase in dYT broth, washed twice in sterile PBS (Gibco, pH 7.4), and resuspended in PBS to ~1 x 10^8 CFU per 50 μL inoculum. The bacterial suspension (50 μL) was injected subcutaneously into the right side of the dorsum, followed one hour later by 50 μL of antibiotic treatment injected directly into the infected area. […] Combination treatments were administered as a single 50 μL injection containing both antibiotics. The concentration of each antibiotic in the combination was the same as when it was used alone. Progression of the infection was monitored daily, and abscess dimensions were measured on day three using a calliper. On day three, abscess tissue and pus were excised, homogenized in sterile PBS using SPEX SamplePrep 1600 MiniG for five minutes and bacterial CFU counts determined by serial dilution.
[2] = tested on: P. aeruginosa LESB58-lux; assay: In vitro synergy, checkerboard assay (luminescence readout); assay type: cell-based, Pseudomonas aeruginosa; settings: TCM, LESB58-lux; for FICI, drug combined with CAZ / FICI, drug combined with CZA: FICI <= 0.5 indicates synergy
Method: (§1) For susceptibility testing under standard conditions, bacteria were cultured in Muller Hinton Broth MHB (Fort Richards Laboratories). Host mimicking conditions in vitro were simulated using tissue culture medium (TCM) consisting of Dulbecco’s modified Eagle medium (DMEM; Gibco #11965) supplemented with FBS (Moregate Biotech) (5% v/v) and glucose (1% w/v). Further susceptibility testing was also conducted in MHB supplemented with FBS (5% v/v) and DMEM supplemented with glucose (1% w/v) and MHB (10% v/v).
(§2) The P. aeruginosa LESB58.lux strain was used for in vitro synergy experiments with azithromycin in MHB and all antibiotic combinations in TCM to determine bacterial growth (as visual inspection and absorbance measurements were unreliable). Synergy was determined using the checkerboard method ([Berenbaum, 1978]; [Pletzer and Hancock, 2018]) in at least triplicate. Each antibiotic was two-fold serially diluted in sterile water before transferring to a 96-well plate containing 1 × 10^6 CFU mL^-1 bacteria in MHB or TCM. Plates were incubated at 37°C for 22-24 hours. The MIC alone or in combination was recorded as the lowest antibiotic concentration with no visible growth. For experiments using the LESB58.lux strain no visible growth was defined as an at least 95% reduction compared to the no antibiotic growth control in luminescence detected using a ClarioStar plate reader. The fractional inhibitory concentration index (FICI) was calculated as [(MICA in combination)/MICA] + [(MICB in combination)/MICB]. FICI values of 0.5 or below indicated synergy, while values above 0.5 up to and including 1 were taken to indicate additivity. FICI values above 1 indicate indifference or antagonism ([Odds, 2003]).

[3] = tested on: P. aeruginosa LESB58; assay: Minimum bactericidal concentration; assay type: cell-based; settings: Pseudomonas aeruginosa
Method: as §1
The minimum bactericidal concentration (MBC) was determined by spotting 5 μL from wells of the MIC plate at or above the MIC onto antibiotic free dYT agar. Plates were incubated at 37°C for another 22-24 hours. The MBC was recorded as the lowest antibiotic concentration with no visible growth on agar plates and the median value reported.

[4] = tested on: P. aeruginosa LESB58; assay: microbe, parasite or virus in culture; assay type: cell-based, Pseudomonas aeruginosa; settings: for MIC in MHB / MIC in TCM: 20-24 h; for MIC: Pseudomonas aeruginosa; for MIC in TCM: TCM (DMEM + 1% glucose + 5% FBS)
Method: (§3) For susceptibility testing under standard conditions, bacteria were cultured in Muller Hinton Broth MHB (Fort Richards Laboratories). […] Further susceptibility testing was also conducted in MHB supplemented with FBS (5% v/v) and DMEM supplemented with glucose (1% w/v) and MHB (10% v/v).
The minimum inhibitory concentration (MIC) of each antibiotic was determined using the broth microdilution method in 96-well plates. […] Briefly, antibiotics were two-fold serially diluted in MHB or TCM prior to adding 1 × 10^6 CFU mL^-1 bacteria. […] The MIC was recorded as the lowest antibiotic concentration with no visible growth and the median value of at least three biological replicates reported.

[5] = tested on: P. aeruginosa PAO1; assay: Minimum inhibitory concentration, broth microdilution; assay type: cell-based, Pseudomonas aeruginosa
Method: as §3
The minimum inhibitory concentration (MIC) of each antibiotic was determined using the broth microdilution method in 96-well plates. […] Briefly, antibiotics were two-fold serially diluted in MHB or TCM prior to adding 1 × 10^6 CFU mL^-1 bacteria. Plates were incubated at 37°C for 22-24 hours. The MIC was recorded as the lowest antibiotic concentration with no visible growth and the median value of at least three biological replicates reported.

[6] = tested on: P. aeruginosa LESB58; assay: Murine high density subcutaneous skin abscess model; assay type: in vivo, Pseudomonas aeruginosa; settings: Colistin
Method: Mice used in this study were female Swiss Webster aged approximately 6-7 weeks and sourced from the University of Otago Biomedical Research Facility. […] The subcutaneous abscess infection model was performed as previously described ([Pletzer et al., 2017]) with a higher inoculum. Briefly, the fur on the back of each mouse was removed by shaving and chemical depilation. Antibiotics were tested for skin toxicity by injecting 50 μL of antibiotic suspension subcutaneously into naïve mice, and subsequent inspection of the skin for inflammation on the next day. P. aeruginosa LESB58 was grown to mid-log phase in dYT broth, washed twice in sterile PBS (Gibco, pH 7.4), and resuspended in PBS to ~1 x 10^8 CFU per 50 μL inoculum. The bacterial suspension (50 μL) was injected subcutaneously into the right side of the dorsum, followed one hour later by 50 μL of antibiotic treatment injected directly into the infected area. […] Combination treatments were administered as a single 50 μL injection containing both antibiotics. The concentration of each antibiotic in the combination was the same as when it was used alone. Progression of the infection was monitored daily, and abscess dimensions were measured on day three using a calliper. On day three, abscess tissue and pus were excised, homogenized in sterile PBS using SPEX SamplePrep 1600 MiniG for five minutes and bacterial CFU counts determined by serial dilution. In this model, synergy was defined as being a significant difference between the combination treated group and the amalgamated group of single drug treated animals ([Fantin and Carbon, 1992]; [Pletzer et al., 2018]).
Statistical analysis was performed using GraphPad Prism 9.5.1. Bacterial CFU and abscess size data from in vivo experiments was analysed by Kruskal-Wallace test with Dunn’s correction for multiple comparisons. The data was considered significant when p-values were below 0.05 or 0.01 as indicated.

[7] = tested on: P. aeruginosa LESB58; assay: In vitro synergy, checkerboard assay; assay type: cell-based, Pseudomonas aeruginosa; settings: MHB
Method: as §1, §2

[8] = tigecycline and tobramycin groups, compared to the vehicle control, day 3
[9] = 50 μL injected subcutaneously, skin inspected next day

## NC(=O)[C@@H]1CC[C@@H]2CN1C(=O)N2OS(=O)(=O)O [AVI, avibactam]
[1]; female, Swiss Webster, mouse, in vivo, sc, 1 day
  Highest tolerated dose tested: 12 mg/mL
[2]
  Fold decrease in CAZ MIC, drug combined with CAZ: 8
  Fold decrease in other MIC, drug combined with CAZ: 4
  FICI, drug combined with CAZ: 0.38
[3]; LESB58, MHB
  MBC: > 125 µg/mL
[3]; LESB58, TCM (DMEM + 1% glucose + 5% FBS)
  MBC: 62.5 µg/mL
[4]; listed as Avibactam
  MIC in MHB: no antimicrobial activity
  MIC in TCM: significant antimicrobial activity
[4]; listed as avibactam
  MIC in MHB: not observed
  MIC in TCM: had anti-pseudomonal activity
[4]; LESB58, read-out: MIC in MHB, MHB, 20-24 h
  MIC: > 125 µg/mL
[4]; LESB58, read-out: MIC in TCM, TCM (DMEM + 1% glucose + 5% FBS), 20-24 h
  MIC: 31.2 µg/mL

## CC[C@H](C)CCCCC(=O)N[C@@H](CCN)C(=O)N[C@H](C(=O)N[C@@H](CCN)C(=O)N[C@H]1CCNC(=O)[C@H]([C@@H](C)O)NC(=O)[C@H](CCN)NC(=O)[C@H](CCN)NC(=O)[C@H](CC(C)C)NC(=O)[C@@H](CC(C)C)NC(=O)[C@H](CCN)NC1=O)[C@@H](C)O [CST, colistin] (HELM PEPTIDE1{[CC[C@H](C)CCCCC(=O)[*:2]].[Dab].T.[Dab].[Dab].[Dab].[dL].L.[Dab].[Dab].T}$PEPTIDE1,PEPTIDE1,5:R3-11:R2$$$V2.0)
[5]; MHB
  MIC in MHB: 2.5 µg/mL (≈ 2.14 µM)
[5]; MIC in TCM vs MIC in MHB
  Fold change TCM vs MHB (MIC): 10
[5]; TCM
  MIC in TCM: 25 µg/mL (≈ 21.4 µM)
[6]; tigecycline and tobramycin groups (shared vehicle, CAZ and CZA mice), female Swiss Webster mice, 50 μL s.c. 1 h after infection, day 3, CAZ or CZA 50, CST 1.25, TGC 2.5, TOB 2 mg/mL, vehicle 0.9% saline
  Area of dermoncecrosis, Mean: 38.6 mm^2
[6]; [8]
  Area of dermoncecrosis, % reduction: 58.9%
  CFU per abscess, Fold change: -107.4
[6]; tigecycline and tobramycin groups, compared to the vehicle control, day 3, listed as colistin
  Area of dermoncecrosis, % reduction: 59%
[6]; tigecycline and tobramycin groups, day 3
  CFU per abscess, Geometric mean: 2.3 × 10^6 CFU per abscess
[6]; tigecycline, tobramycin experiments
  Fold reduction of bacterial load (CFU) relative to vehicle: ~107
[1]; [9]
  Highest tolerated dose tested: 2 mg/mL
  Toxic (visible skin irritation, inflammation, blood vessels, swelling): 5 mg/mL
[2]
  Fold decrease in CAZ MIC, drug combined with CAZ: 8
  Fold decrease in CZA MIC, drug combined with CZA: 4
  Fold decrease in other MIC, drug combined with CAZ: 4
  Fold decrease in other MIC, drug combined with CZA: 4
  FICI, drug combined with CAZ: 0.38
  FICI, drug combined with CZA: 0.5
[2]; listed as colistin
  FICI, drug combined with CAZ: synergised
  FICI, drug combined with CZA: synergised
[7]
  Fold decrease in CAZ MIC, drug combined with CAZ: 4
  Fold decrease in CZA MIC, drug combined with CZA: 4
  Fold decrease in other MIC, drug combined with CAZ: 8
  Fold decrease in other MIC, drug combined with CZA: 8
[7]; FICI <= 0.5 indicates synergy
  FICI, drug combined with CAZ: 0.38
[4]
  MIC in MHB: 3.13 µg/mL (≈ 2.68 µM)
  MIC in TCM: 12.5 µg/mL
